Experimental findings from patent US11253500B2, “Sanfetrinem or a salt or ester thereof for use in treating mycobacterial infection” (priority 2017, dated 2022) are described below.

Assay [1] concerns M. tuberculosis H37Rv. Nature of the assay: In vivo anti-tubercular activity in DHP-1 KO mice. The arrangement: species or system Mycobacterium tuberculosis. As to conditions: 129sv DHP-1 KO mice; for Lung CFU: intratracheal infection, twice a day from day 9 to day 14, lungs day 15, mean, untreated 7.4 (Day 9), 9.0 (Day 15); for Effect on bacterial growth in lung: treated day 9 to day 14.

For assay [2], the system named is M. tuberculosis H37Rv. Nature of the assay: MIC determination (extracellular, resazurin). In kind it is cell-based, Mycobacterium tuberculosis.
For assay [3], the system named is Mycobacterium tuberculosis growing inside human THP-1 monocytes. Nature of the assay: Intracellular viability assay (luciferase Mtb in THP-1 monocytes). In kind it is cell-based.
The subject of assay [4] is Mtb H37Rv strain. Nature of the assay: Checkerboard assay with rifampicin, ethambutol, delamanid and amoxicillin (384-well, MTT or ATP). In kind it is cell-based, Mycobacterium tuberculosis. Conditions: for FIC_B / MICsyn_B: Comp B in the presence of SFT; for Fold_B: MIC/MICsyn of Comp B with SFT; for MIC: Mycobacterium tuberculosis, H37RV, Comp B alone (IC90).
Assay [5] has as its system M. tuberculosis H37Rv. Nature of the assay: Checkerboard combination with amoxicillin and/or clavulanate (resazurin). Type of assay: cell-based, Mycobacterium tuberculosis.
In assay [6] the test system is panel of twenty-three M. tuberculosis strains. Nature of the assay: microbe, parasite or virus in culture. Type of assay: cell-based, Mycobacterium tuberculosis. Conditions: for MIC: Mycobacterium tuberculosis.
[7] abbreviates: Mycobacterium tuberculosis, H37RV, extracellular, with 4 μg/ml potassium clavulanate, average, read-out: MIC μM (average with clav).
The mark [8] stands for this setting: Mycobacterium tuberculosis, H37RV, extracellular, without clavulanate, average, read-out: MIC μM (average w/o clav).
The mark [9] stands for this setting: Mycobacterium tuberculosis, w/o clav, average, read-out: MIC50 μM (average w/o clav).
The mark [10] stands for this setting: Mycobacterium tuberculosis, w/o clav, average, read-out: MIC90 μM (average w/o clav).
[11] abbreviates: Mycobacterium tuberculosis, with clav, average, read-out: MIC50 μM (average with clav).
[12] abbreviates: Mycobacterium tuberculosis, with clav, average, read-out: MIC90 μM (average with clav).
Where [13] appears, read: Mycobacterium tuberculosis, with clav, separate readings, read-out: MIC90 μM (with clav).
Setting [14] is: with clav, separate readings, read-out: MIC90 μM (with clav).
The mark [15] stands for this setting: Mycobacterium tuberculosis, H37RV, extracellular, with 4 μg/ml potassium clavulanate, separate readings, read-out: MIC μM (with clav).
[16] abbreviates: Mycobacterium tuberculosis, H37RV, extracellular, without clavulanate, separate readings, read-out: MIC μM (w/o clav).
The mark [17] stands for this setting: Mycobacterium tuberculosis, w/o clav, separate readings, read-out: MIC50 μM (w/o clav).
Where [18] appears, read: Mycobacterium tuberculosis, w/o clav, separate readings, read-out: MIC90 μM (w/o clav).
[19] abbreviates: Mycobacterium tuberculosis, with clav, separate readings, read-out: MIC50 μM (with clav).
Setting [20] is: w/o clav, separate readings, read-out: MIC50 μM (w/o clav).
Where [21] appears, read: w/o clav, separate readings, read-out: MIC90 μM (w/o clav).
The mark [22] stands for this setting: with clav, separate readings, read-out: MIC50 μM (with clav).
[23] abbreviates: Mycobacterium tuberculosis, H37RV.

Converted amounts (≈) assume the structure as drawn. “And” between values parts separate entries of the source, which are not always exact repeats. Equal values may be shown once. Where a name gives a salt, the structure may show the parent alone. Read-outs that look alike come from different tables or passages of the source. Some results are limits rather than exact numbers.

In the case of `CO[C@H]1CCC[C@H]2C1=C(C(=O)OC(C)OC(=O)OC1CCCCC1)N1C(=O)[C@H]([C@@H](C)O)[C@@H]21` (mixture of isomers) [Sanfetrinem cilexetil, (1S,5S,8aS,8bR)-1-(((cyclohexyloxy)carbonyl)oxy)ethyl 1-((R)-1-hydroxyethyl)-5-methoxy-2-oxo-1,2,5,6,7,8,8a,8b-octahydroazeto[2,1-a]isoindole-4-carboxylate], the “Lung CFU” value in assay [1] was determined as 7.6 log CFU. Further, the “Effect on bacterial growth in lung” value in assay [1] is given as “preventing bacterial growth”. Also, the MIC in assay [2] (setting [7]) was determined as 8.6 µM; in assay [2] (setting [8]), 10.6 µM. Further, the MIC50 in assay [3] (setting [9]) worked out at 0.85 µM (≈ 0.384 µg/mL); in assay [3] (setting [11]) it was 0.6 µM (≈ 0.271 µg/mL). In addition, the MIC90 came to 5.2 µM (≈ 2.35 µg/mL) in assay [3] (setting [10]), 5 µM (≈ 2.26 µg/mL) in assay [3] (setting [12]), 4.6 µM (≈ 2.08 µg/mL) in assay [3] (setting [13]) and 5.3 µM (≈ 2.39 µg/mL) in assay [3] (setting [14]).
With `C[C@]1(COc2ccc(N3CCC(Oc4ccc(OC(F)(F)F)cc4)CC3)cc2)Cn2cc([N+](=O)[O-])nc2O1` [DLD, Delamanid], in assay [4], the FIC_B is reported as 0.25, the MICsyn_B stood at 0.0025 µM, the Fold_B amounted to 4 and the MIC amounted to 0.01 µM.
Turning to `CC[C@@H](CO)NCCN[C@@H](CC)CO` [EMB, Ethambutol], in assay [4], the FIC_B is recorded as 0.25, the MICsyn_B was 2 µM, the Fold_B amounted to 4 and the MIC is 8 µM.
Regarding `C[C@@H](O)[C@H]1C(=O)N2C(C(=O)O)=C(S[C@@H]3CN[C@H](C(=O)Nc4cccc(C(=O)O)c4)C3)[C@H](C)[C@H]12` [Ertapenem], the MIC in assay [2] (setting [7]) is 16.7 µM; in assay [2] (setting [15]), 10 µM; in assay [2] (setting [8]) it was more than 80 µM; in assay [2] (setting [16]), 80 µM; in assay [2] (extracellular, with 4 μg/ml potassium clavulanate, separate readings, read-out: MIC μM (with clav)) it was 20 µM. Further, the MIC50 in assay [3] (setting [9]) was 29.6 µM (≈ 14.1 µg/mL); in assay [3] (setting [11]), 3.84 µM (≈ 1.83 µg/mL). Also, the MIC90 in assay [3] (setting [10]) is more than 50 µM; in assay [3] (setting [12]) it was 21 µM (≈ 10 µg/mL).
With `C[C@@H](O)[C@H]1C(=O)N2C(C(=O)O)=C([C@H]3CCCO3)S[C@H]12` [Faropenem], the MIC was 8.9 µM in assay [2] (setting [7]) and 15.7 µM in assay [2] (setting [8]). For the same molecule, the MIC50 amounted to 1.85 µM (≈ 0.528 µg/mL) in assay [3] (setting [9]); 2.2 µM (≈ 0.628 µg/mL) in assay [3] (setting [17]); 1.1 µM (≈ 0.314 µg/mL) in assay [3] (setting [11]); 1 µM (≈ 0.285 µg/mL) in assay [3] (setting [19]); 1.5 µM (≈ 0.428 µg/mL) in assay [3] (setting [20]); 1.2 µM (≈ 0.342 µg/mL) in assay [3] (setting [22]). Further, the MIC90 was 12.3 µM (≈ 3.52 µg/mL) in assay [3] (setting [10]); 14.7 µM (≈ 4.19 µg/mL) in assay [3] (setting [18]); 5.75 µM (≈ 1.64 µg/mL) in assay [3] (setting [12]); 6.8 µM (≈ 1.94 µg/mL) in assay [3] (setting [13]); 10.0 µM (≈ 2.85 µg/mL) in assay [3] (setting [21]); 4.7 µM (≈ 1.34 µg/mL) in assay [3] (setting [14]).
For `C[C@@H](O)[C@H]1C(=O)N2C(C(=O)O)=C(S[C@@H]3CN[C@H](C(=O)N(C)C)C3)[C@H](C)[C@H]12` [Meropenem], the results for the MIC in assay [2] (setting [7]) and in assay [2] (setting [8]) were 6.9 µM and 31.7 µM, respectively. Moreover, the MIC50 in assay [3] (setting [9]) is 6.78 µM (≈ 2.6 µg/mL); in assay [3] (setting [17]) it was 8.97 µM (≈ 3.44 µg/mL); in assay [3] (setting [11]), 1.94 µM (≈ 0.744 µg/mL); in assay [3] (setting [19]), 2.03 µM (≈ 0.778 µg/mL); in assay [3] (setting [20]) it was 4.6 µM (≈ 1.76 µg/mL); in assay [3] (setting [22]) it was 1.85 µM (≈ 0.709 µg/mL). Besides, the MIC90 in assay [3] (setting [10]) was 17 µM (≈ 6.52 µg/mL); in assay [3] (setting [18]) it was 19.6 µM (≈ 7.52 µg/mL); in assay [3] (setting [12]) it was 5.55 µM (≈ 2.13 µg/mL); in assay [3] (setting [13]), 5.39 µM (≈ 2.07 µg/mL); in assay [3] (setting [21]) it was 14.41 µM (≈ 5.53 µg/mL); in assay [3] (setting [14]) it was 5.71 µM (≈ 2.19 µg/mL).
Turning to `CO[C@H]1/C=C/O[C@@]2(C)Oc3c(C)c(O)c4c(O)c(c(/C=N/N5CCN(C)CC5)c(O)c4c3C2=O)NC(=O)/C(C)=C\C=C\[C@H](C)[C@H](O)[C@@H](C)[C@@H](O)[C@@H](C)[C@H](OC(C)=O)[C@@H]1C` [RIF, Rifampicin], in assay [4], the MICsyn_B is 0.005 µM and the MIC was found to be 0.04 µM.
For the molecule `CO[C@H]1CCC[C@H]2C1=C(C(=O)O)N1C(=O)[C@H]([C@@H](C)O)[C@@H]21` [Sanfetrinem (sodium salt), sodium (1S,5S,8aS,8bR)-1-((R)-1-hydroxyethyl)-5-methoxy-2-oxo-1,2,5,6,7,8,8a,8b-octahydroazeto[2,1-a]isoindole-4-carboxylate], the IC90 in assay [5] (setting [23]) amounted to 1.22 µg/mL; in assay [5] (Mycobacterium tuberculosis, H37RV, read-out: IC90 of sanfetrinem in combination with amoxicillin (at 10 μg/ml)), 0.33 µg/mL; in assay [5] (Mycobacterium tuberculosis, H37RV, read-out: IC90 of sanfetrinem in combination with clavulanate), 0.55 µg/mL. In addition, the “Lung CFU” value in assay [1] was determined as 7.3 log CFU. Besides, the “Effect on bacterial growth in lung” value in assay [1] is “preventing bacterial growth”. The MIC was 5 µM in assay [2] (Mycobacterium tuberculosis, H37RV, read-out: MIC μM (average w/o clav), extracellular, without clavulanate, average); 2.9 µM in assay [2] (Mycobacterium tuberculosis, H37RV, read-out: MIC μM (average with clav), extracellular, with 4 μg/ml potassium clavulanate, average); more than 5 µM in assay [6] (read-out: MIC, another four strains higher); less than 5 µM in assay [6] (read-out: MIC, four strains lower); 5 µM in assay [6] (read-out: MIC, most common value). In addition, the “Sensitivity of all strains within the concentration range tested” value in assay [6] (MGIT 960, 23 strains, 0.5 to 20 μM) was “sensitive”. The Fold_A was 8 in assay [4] (MIC/MICsyn of SFT with AMX), 4 in assay [4] (MIC/MICsyn of SFT with DLD), 4 in assay [4] (MIC/MICsyn of SFT with EMB) and 8 in assay [4] (MIC/MICsyn of SFT with RIF). The FIC_A stood at 0.125 in assay [4] (SFT in the presence of AMX), 0.25 in assay [4] (SFT in the presence of DLD), 0.25 in assay [4] (SFT in the presence of EMB) and 0.125 in assay [4] (SFT in the presence of RIF). The MICsyn_A in assay [4] (SFT in the presence of AMX) stood at 0.5 µM; in assay [4] (SFT in the presence of DLD), 0.4 µM; in assay [4] (SFT in the presence of EMB) it was 0.4 µM; in assay [4] (SFT in the presence of RIF), 0.4 µM. The FICI was 0.1875 in assay [4] (combination SFT with AMX), 0.5 in assay [4] (combination SFT with DLD), 0.5 in assay [4] (combination SFT with EMB) and 0.25 in assay [4] (combination SFT with RIF). The MIC50 in assay [3] (setting [9]) was 1.65 µM; in assay [3] (setting [17]) it was 1.32 µM; in assay [3] (setting [11]), 1.64 µM; in assay [3] (setting [20]), 1.64 µM and 2 µM. Moreover, the MIC90 in assay [3] (setting [10]) is 5.57 µM; in assay [3] (setting [12]), 7.25 µM; in assay [3] (setting [13]), 6.13 µM; in assay [3] (setting [14]) it was 6.8 µM and 8.82 µM.
`C[C@@H](O)[C@H]1C(=O)N2C(C(=O)O)=C(SC3CN(C4=NCCS4)C3)[C@H](C)[C@H]12` [Tebipenem]: the MIC amounted to 1.25 µM in assay [2] (setting [7]), 1.25 µM in assay [2] (setting [15]), 7.5 µM in assay [2] (setting [8]) and 7.5 µM in assay [2] (setting [16]). In addition, the MIC50 turned out to be 4.51 µM (≈ 1.73 µg/mL) in assay [3] (setting [9]) and 0.49 µM (≈ 0.188 µg/mL) in assay [3] (setting [11]). Moreover, the results for the MIC90 in assay [3] (setting [10]) and in assay [3] (setting [12]) were 46.5 µM (≈ 17.8 µg/mL) and 3.61 µM (≈ 1.38 µg/mL), respectively.
By IC80 is commonly meant the concentration needed for an effect of 80%. As to `CC1(C)S[C@@H]2[C@H](NC(=O)[C@H](N)c3ccc(O)cc3)C(=O)N2[C@H]1C(=O)O` [amoxicillin], the IC80 in assay [5] (setting [23]) came out at 42 µg/mL. Also, the “Reaching 90% Inhibition” value in assay [5] (amoxicillin in monotherapy) was “does not reach a 90% Inhibition”. In addition, the “Reaching 90% growth inhibition” value in assay [5] (in combination with clavulanate) was “nor in combination with clavulanate reach the 90% growth inhibition”. Moreover, in assay [4], the MICsyn_B came out at 8 µM and the MIC amounted to 128 µM.
In the case of `O=C(O)[C@H]1/C(=C/CO)O[C@@H]2CC(=O)N21` [clavulanate, Potassium clavulanate], in assay [5] (alone), the Activity alone entry is on record as “not active”.
